Measured values: US8217055B2, “Pyrido-pyrazine derivatives useful as herbicidal compounds” (Syngenta Crop Protection LLC, priority 2006, dated 2012)

How the values were obtained:
Experiment in all cases: Example B2 herbicidal action, post-emergence, pots in glasshouse, evaluated after 13 days (10=total damage to plant; 0=no damage to plant)
Type in all cases: in vivo
Amaranthus retroflexus = tested on: Amaranthus retroflexus
Experimental: (§1) Seeds of a variety of test species were sown in standard soil in pots. After 8 days cultivation (post-emergence) under controlled conditions in a glasshouse (at 24/16° C., day/night; 14 hours light; 65% humidity), the plants were sprayed with an aqueous spray solution derived from the formulation of the technical active ingredient in acetone/water (50:50) solution containing 0.5% Tween 20 (polyoxyethelyene sorbitan monolaurate, CAS RN 9005-64-5). The test plants were then grown in a glasshouse under controlled conditions in a glasshouse (at 24/16° C., day/night; 14 hours light; 65% humidity) and watered twice daily. After 13 days, the test was evaluated (10=total damage to plant; 0=no damage to plant).

Echinochloa crus-galli = tested on: Echinochloa crus-galli
Experimental: as §1

Ipomea hederaceae = tested on: Ipomea hederaceae
Experimental: as §1

Setaria faberi = tested on: Setaria faberi
Experimental: as §1

Solanum nigrum = tested on: Solanum nigrum
Experimental: as §1

Row | SMILES | AMARE damage score (10=total damage to plant; 0=no damage to plant) (Amaranthus retroflexus; rate 250 g/ha) | ECHCG damage score (10=total damage to plant; 0=no damage to plant) (Echinochloa crus-galli; rate 250 g/ha) | IPOHE damage score (10=total damage to plant; 0=no damage to plant) (Ipomea hederaceae; rate 250 g/ha) | SETFA damage score (10=total damage to plant; 0=no damage to plant) (Setaria faberi; rate 250 g/ha) | SOLNI damage score (10=total damage to plant; 0=no damage to plant) (Solanum nigrum; rate 250 g/ha) | AMARE damage score (10=total damage to plant; 0=no damage to plant) (Amaranthus retroflexus; rate 1000 g/ha) | ECHCG damage score (10=total damage to plant; 0=no damage to plant) (Echinochloa crus-galli; rate 1000 g/ha) | IPOHE damage score (10=total damage to plant; 0=no damage to plant) (Ipomea hederaceae; rate 1000 g/ha) | SETFA damage score (10=total damage to plant; 0=no damage to plant) (Setaria faberi; rate 1000 g/ha) | SOLNI damage score (10=total damage to plant; 0=no damage to plant) (Solanum nigrum; rate 1000 g/ha)
1 | O=c1c(-c2cc(C(F)(F)F)ccc2Cl)c(O)c2nccnc2n1CC(F)F [B3] | 10 | 7 | 8 | 7 | 9 | – | – | – | – | –
2 | O=c1c(-c2c(Cl)cccc2C(F)(F)F)c(O)c2nccnc2n1CC(F)F [B13] | – | – | – | – | – | 10 | 9 | 10 | 9 | 10
3 | CC(C)(C)C(=O)Oc1c(-c2ccc(C(F)(F)F)cc2Br)c(=O)n(CC(F)F)c2nccnc12 [A10] | – | – | – | – | – | 10 | 4 | 5 | 3 | 9
4 | CCc1ccccc1-c1c(OC(=O)C(C)C)c2nccnc2n(CC(F)F)c1=O [A45] | – | – | – | – | – | 10 | 5 | 9 | 8 | 10
5 | Cc1cc(C)c(-c2c(O)c3nccnc3n(CC(F)F)c2=O)c(C)c1 [B5] | – | – | – | – | – | 7 | 8 | 10 | 8 | 10
6 | CC(C)C(=O)Oc1c(-c2ccccc2OC(F)F)c(=O)n(CC(F)F)c2nccnc12 [A26] | – | – | – | – | – | 10 | 2 | 5 | 2 | 5
7 | COc1cccc(-c2c(OC(=O)C(C)C)c3nccnc3n(CC(F)F)c2=O)c1OC [A15] | – | – | – | – | – | 6 | 8 | 9 | 9 | 10
8 | CC(C)C(=O)Oc1c(-c2cc(F)ccc2Cl)c(=O)n(CC(F)F)c2nccnc12 [A13] | – | – | – | – | – | 10 | 8 | 10 | 9 | 10
9 | COc1cccc(-c2c(OC(=O)C(C)(C)C)c3nccnc3n(CC(F)F)c2=O)c1OC [A16] | – | – | – | – | – | 8 | 3 | 7 | 8 | 10
10 | Cc1cc(C)c(-c2c(OC(=O)C(C)(C)C)c3nccnc3n(CC(F)F)c2=O)c(C)c1 [A25] | – | – | – | – | – | 7 | 7 | 8 | 7 | 10
11 | COc1ccc(OC(F)(F)F)cc1-c1c(OC(=O)C(C)(C)C)c2nccnc2n(CC(F)F)c1=O [A27] | – | – | – | – | – | 9 | 7 | 7 | 7 | 9
